{
  "source": "patent US11649220B2",
  "about": "(DEMOTECH.INC., priority 2018, dated 2023)",
  "key": {"[1]": {"assay": "In vitro free radical inhibition test (DPPH method)", "conditions": "8 μL of 20 mmol/L compound in 1 mL DPPH 0.059 mg/mL ethanol, 60 min dark, 517 nm; for inhibition rate %: DPPH; for Relative inhibition ability on free radicals: inhibition rate of AGI1067 on DPPH defined as 100", "description": "1. In Vitro Free Radical Inhibition Test (DPPH Method)\nThe single electron of DPPH radical has a strong absorption at […], and its alcohol solution is purple. In the presence of a free radical scavenger, the absorption of DPPH radical is weakened or disappeared for the reason that the free radical scavenger is paired with the single electron of DPPH radical, and the degree of discoloration is quantitatively related to the number of electrons DPPH radical receives. Therefore, a spectrophotometer can be used to quickly and quantitatively analyze the free radical scavenging rate of the compound.\n1) 1 mL solution of DPPH in absolute ethanol (concentration: 0.059 mg/mL) was taken; 2) 8 μL of the compound to be tested (20 mmol/L) were added; 3) after mixing well, the resultant was kept in dark at room temperature for 60 minutes, 4) the absorbance of the sample at 517 nm was measured."}, "[2]": {"system": "Malondialdehyde (MDA) in serum", "assay": "In vivo anti-lipid oxidation experiment (serum MDA, TBA method)", "set-up": "inhibition rate %: concentration or dose not given beside the values", "conditions": "MAD lipid peroxidation in vivo; for inhibition rate %: relative to solvent DMSO and Chow averages; for avarage value of OD: serum, TBA method, 532 nm", "description": "Experimental principle: Malondialdehyde (MDA) in liposome degradation products could condense with thiobarbituric acid (TBA) to form a red product which has a maximum absorption peak at 532 nm. The spectrophotometer was used to measure the relative absorption value to calculate the antioxidant value.\nReagents: Malondialdehyde (MDA) test kit (article number: A003-1, […], Nanjing Jiancheng), glacial acetic acid of analytically pure grade.\nReagent preparations: 1) Reagent I: Reagent 1 in the kit was taken out from the refrigerator and subjected to natural warming until a transparent liquid is obtained; 2) Reagent II: 170 mL of double-distilled water was added to each bottle and mixed; 3) Reagent III: A dry powder in the kit was dissolved in 60 mL of double-distilled water at 90 to 100° C. After the dry powder was dissolved totally, 30 mL of glacial acetic acid was added and kept in dark place; 4) Standard: 10 nmol/mL tetraethoxypropane.\nExperimental procedures: 1) Blank tube: To 2 mL centrifuge tube were added anhydrous ethanol (70 μl), Reagent I (70 μl), Reagent II (0.8 mL) and Reagent III (0.8 mL) in sequence; 2) Standard tube: To 2 mL centrifuge tube were added standard (70 μl), Reagent I (70 μl), Reagent 11 (0.8 mL) and Reagent III (0.8 mL) in sequence; 3) Measuring tube: To 2 mL centrifuge tube were added the serum to be tested and physiological saline (the total volume of serum and physiological saline is 70 μl), Reagent I (70 μl), Reagent II (0.8 mL) and Reagent III (0.8 mL) in sequence; 4) Control tubes: all samples are set up with corresponding control tubes. To a 2 mL centrifuge tube were added the serum to be tested and physiological saline (the total volume of serum and physiological saline is 70 μl), Reagent I (70 μl), Reagent II (0.8 mL) and 50% glacial acetic acid (0.8 mL) in sequence.\nAfter the above reagents were added, the mixture was mixed homogenously. Then the mixture was left in the water bath at 95° C. for 60 minutes. The sample was centrifuged at 4000 rpm for 10 minutes. The supernatant was taken for the measurement of the OD value.\nExperimental data processing: the MDA content in serum was calculated as follows: MDA=(OD valuemeasured−OD valuecontrol)/OD valuestandard*concentration of the standard Inhibition rate %=100−(ODsample-average value−average value of Chow)/(average value of the solvent DMSO−average value of Chow)*100"}},
  "data": [
    {"smiles": "CC(N)C(=O)OCCC(C)(C)c1cc(SC(C)(C)Sc2cc(C(C)(C)C)c(O)c(C(C)(C)C)c2)cc(C(C)(C)C)c1O", "note": "(centres unmarked) [Compound 20, 3-(3-(tert-butyl)-5-((2-((3,5-di-tert-butyl-4-hydroxyphenyl)thio)propan-2-yl)thio)-2-hydroxyphenyl)-3-methylbutyl alaninate]", "values": [
      {"measurement": "inhibition rate %", "setting": "[1]", "value": 26.3, "unit": "%"},
      {"measurement": "Relative inhibition ability on free radicals", "setting": "[1]", "value": 38.9},
      {"measurement": "inhibition rate %", "setting": "[2]", "value": 30.7, "unit": "%"},
      {"measurement": "avarage value of OD", "setting": "[2]", "value": 8.10}
    ]},
    {"smiles": "COC(=O)CN(CCC(C)(C)c1cc(SC(C)(C)Sc2cc(C(C)(C)C)c(O)c(C(C)(C)C)c2)cc(C(C)(C)C)c1O)CC(=O)OC", "note": "[Compound 22, dimethyl 2,2′-((3-(3-(tert-butyl)-5-((2-((3,5-di-tert-butyl-4-hydroxyphenyl)thio)propan-2-yl)thio)-2-hydroxyphenyl)-3-methylbutyl)azanediyl)diacetate]", "values": [
      {"measurement": "inhibition rate %", "setting": "[1]", "value": 42.6, "unit": "%"},
      {"measurement": "Relative inhibition ability on free radicals", "setting": "[1]", "value": 97.6},
      {"measurement": "inhibition rate %", "setting": "[2]", "value": 36.2, "unit": "%"},
      {"measurement": "avarage value of OD", "setting": "[2]", "value": 7.89}
    ]},
    {"smiles": "CC(C)(Sc1cc(C(C)(C)C)c(O)c(C(C)(C)CCO)c1)Sc1cc(C(C)(C)C)c(O)c(C(C)(C)CCO)c1", "note": "[Compound 9, 4,4′-(propane-2,2-diylbis(thio))bis(2-(tert-butyl)-6-(4-hydroxy-2-methylbutan-2-yl)phenol)]", "values": [
      {"measurement": "inhibition rate %", "setting": "[1]", "value": 55.1, "unit": "%"},
      {"measurement": "Relative inhibition ability on free radicals", "setting": "[1]", "value": 126.3},
      {"measurement": "inhibition rate %", "setting": "[2]", "value": 62.9, "unit": "%"},
      {"measurement": "avarage value of OD", "setting": "[2]", "value": 6.86}
    ]},
    {"smiles": "CC(C)(SCC(=O)O)Sc1cc(C(C)(C)C)c(O)c(C(C)(C)C)c1", "note": "[Compound 2, 2-((2-((3,5-di-tert-butyl-4-hydroxyphenyl)thio)propan-2-yl)thio)acetic acid]", "values": [
      {"measurement": "inhibition rate %", "setting": "[1]", "value": 27.1, "unit": "%"},
      {"measurement": "Relative inhibition ability on free radicals", "setting": "[1]", "value": 62.1},
      {"measurement": "inhibition rate %", "setting": "[2]", "value": 73.5, "unit": "%"},
      {"measurement": "avarage value of OD", "setting": "[2]", "value": 6.45}
    ]},
    {"smiles": "CC(C)(SCCC(=O)O)Sc1cc(C(C)(C)C)c(O)c(C(C)(C)C)c1", "note": "[Compound 4, 3-((2-((3,5-di-tert-butyl-4-hydroxyphenyl)thio)propan-2-yl)thio)propanoic acid]", "values": [
      {"measurement": "inhibition rate %", "setting": "[1]", "value": 24.1, "unit": "%"},
      {"measurement": "Relative inhibition ability on free radicals", "setting": "[1]", "value": 55.2},
      {"measurement": "inhibition rate %", "setting": "[2]", "value": 84.4, "unit": "%"},
      {"measurement": "avarage value of OD", "setting": "[2]", "value": 6.03}
    ]},
    {"smiles": "CC(C)(Sc1cc(C(C)(C)C)c(O)c(C(C)(C)C)c1)Sc1cc(C(C)(C)C)c2c(c1)C(C)(C)CCO2", "note": "[Compound 10, 2,6-di-tert-butyl-4-((2-((8-(tert-butyl)-4,4-dimethylchroman-6-yl)thio)propan-2-yl)thio)phenol]", "values": [
      {"measurement": "inhibition rate %", "setting": "[1]", "value": 41.1, "unit": "%"},
      {"measurement": "Relative inhibition ability on free radicals", "setting": "[1]", "value": 94.1},
      {"measurement": "inhibition rate %", "setting": "[2]", "value": 47.6, "unit": "%"},
      {"measurement": "avarage value of OD", "setting": "[2]", "value": 7.45}
    ]},
    {"smiles": "CC(C)(Sc1cc(C(C)(C)C)c(O)c(C(C)(C)C)c1)Sc1cc(C(C)(C)C)c(O)c(C(C)(C)CCOC(=O)CCC(=O)NCCS(=O)(=O)O)c1", "note": "[Compound 27, 2-(4-(3-(3-(tert-butyl)-5-((2-((3,5-di-tert-butyl-4-hydroxyphenyl)thio)propan-2-yl)thio)-2-hydroxyphenyl)-3-methylbutoxy)-4-oxobutanamido)ethane-1-sulfonic acid]", "values": [
      {"measurement": "inhibition rate %", "setting": "[1]", "value": 18.1, "unit": "%"},
      {"measurement": "Relative inhibition ability on free radicals", "setting": "[1]", "value": 41.5},
      {"measurement": "inhibition rate %", "setting": "[2]", "value": 30.2, "unit": "%"},
      {"measurement": "avarage value of OD", "setting": "[2]", "value": 8.12}
    ]},
    {"smiles": "CCN(CC)CCOCCC(C)(C)c1cc(SC(C)(C)Sc2cc(C(C)(C)C)c(O)c(C(C)(C)C)c2)cc(C(C)(C)C)c1O", "note": "[Compound 17, 2,6-di-tert-butyl-4-((2-((3-(tert-butyl)-5-(4-(2-(diethylamino)ethoxy)-2-methylbutan-2-yl)-4-hydroxyphenyl)thio)propan-2-yl)thio)phenol]", "values": [
      {"measurement": "inhibition rate %", "setting": "[1]", "value": 27.8, "unit": "%"},
      {"measurement": "Relative inhibition ability on free radicals", "setting": "[1]", "value": 63.7},
      {"measurement": "inhibition rate %", "setting": "[2]", "value": 74.0, "unit": "%"},
      {"measurement": "avarage value of OD", "setting": "[2]", "value": 6.43}
    ]}
  ]
}
